Test results taken from the supplement of paper PMC10307832.

Legend:
Assay in all cases: relative viability (nuclei count vs DMSO), 5 days (fraction); higher = more cells survive
[1] = compound: CCN(CCO)CCCC(C)Nc1ccnc2cc(Cl)ccc12 [Hydroxychloroquine] + CS(=O)(=O)N1CCN(Cc2cc3nc(-c4cccc5[nH]ncc45)nc(N4CCOCC4)c3s2)CC1 [Pictilisib] (partner 1 µM)
Procedure, shortened: (§1)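 A single step with final 0.05% Triton X-100, 1% formaldehyde and 1 ug/ml Hoechst fixed the cells and stained nuclei 5 days after treatment. Lung cancer cell lines in 1536-well plates had been treated by pin tool the day after seeding with one drug alone or a fixed anchor-drug dose plus five library-drug doses (not always all listed) in √10 steps, and nuclei were counted on 4× images. Relative viability is the ratio of nuclei in treated wells to nuclei in vehicle wells, taken as the median of duplicate plates.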

[2] = compound: CCN(CCO)CCCC(C)Nc1ccnc2cc(Cl)ccc12 [Hydroxychloroquine] + CCNC(=O)c1noc(-c2cc(C(C)C)c(O)cc2O)c1-c1ccc(CN2CCOCC2)cc1 [Luminespib] (partner 0.01 µM)
Procedure, shortened: as §1

[3] = compound: CCN(CCO)CCCC(C)Nc1ccnc2cc(Cl)ccc12 [Hydroxychloroquine] + CC(=O)c1c(C)c2cnc(Nc3ccc(N4CCNCC4)cn3)nc2n(C2CCCC2)c1=O [Palbociclib] (partner 0.5 µM)
Procedure, shortened: as §1

[4] = compound: CCN(CCO)CCCC(C)Nc1ccnc2cc(Cl)ccc12 [Hydroxychloroquine] + COc1cccc2cc(-c3nc([C@H]4CC[C@H](C(=O)O)CC4)n4ncnc(N)c34)[nH]c12 [OSI-027] (partner 0.5 µM)
Procedure, shortened: as §1

Cell Line | relative viability ([1]; first compound 0.5 µM) | relative viability ([1]; first compound 1.581 µM) | relative viability ([1]; first compound 5 µM) | relative viability ([1]; first compound 15.81 µM) | relative viability ([1]; first compound 50 µM) | relative viability ([2]; first compound 0.5 µM) | relative viability ([2]; first compound 1.581 µM) | relative viability ([2]; first compound 5 µM) | relative viability ([2]; first compound 15.81 µM) | relative viability ([2]; first compound 50 µM) | relative viability ([3]; first compound 0.5 µM) | relative viability ([3]; first compound 1.581 µM) | relative viability ([3]; first compound 5 µM) | relative viability ([3]; first compound 15.81 µM) | relative viability ([3]; first compound 50 µM) | relative viability ([4]; first compound 0.5 µM) | relative viability ([4]; first compound 1.581 µM) | relative viability ([4]; first compound 5 µM) | relative viability ([4]; first compound 15.81 µM) | relative viability ([4]; first compound 50 µM)
NCI-H2228 | 0.403 | 0.375 | 0.339 | 0.412 | 0.398 | 0.24 | 0.122 | 0.162 | 0.185 | 0.112 | 0.322 | 0.871 | 0.857 | 0.706 | 0.873 | 0.617 | 0.569 | 0.634 | 0.548 | 0.669
NCI-H2170 | 0.327 | 0.294 | 0.282 | 0.284 | 0.333 | 0.543 | 0.646 | 0.765 | 0.714 | 1.01 | 0.379 | 0.401 | 0.415 | 0.4 | 0.421 | 0.63 | 0.776 | 0.685 | 0.702 | 0.806
EMC-BAC-2 | 0.593 | 0.417 | 0.547 | 0.55 | 0.612 | 1.2 | 1.03 | 1.14 | 1.18 | 1.19 | 0.52 | 0.45 | 0.519 | 0.514 | 0.523 | 0.376 | 0.324 | 0.381 | 0.368 | 0.365
NCI-H23 | 0.552 | 0.409 | 0.384 | 0.385 | 0.449 | 0.23 | 0.218 | 0.22 | 0.215 | 0.216 | 0.499 | 0.487 | 0.548 | 0.464 | 0.477 | 0.684 | 0.447 | 0.572 | 0.535 | 0.572
SK-LU-1 | 0.567 | 0.529 | 0.568 | 0.474 | 0.543 | 0.21 | 0.209 | 0.21 | 0.205 | 0.187 | 0.381 | 0.382 | 0.432 | 0.361 | 0.431 | 0.394 | 0.348 | 0.337 | 0.334 | 0.34
NCI-H358 | 0.32 | 0.274 | 0.281 | 0.327 | 0.328 | 0.286 | 0.293 | 0.282 | 0.283 | 0.388 | 0.13 | 0.126 | 0.137 | 0.122 | 0.137 | 0.666 | 0.616 | 0.783 | 0.83 | 0.991
LC-2-ad | 0.321 | 0.395 | 0.463 | 0.546 | 0.436 | 1.19 | 1.02 | 0.906 | 1.01 | 0.969 | 0.454 | 0.454 | 0.486 | 0.555 | 0.476 | 0.953 | 0.793 | 0.853 | 0.805 | 0.868
HCC-15 | 0.773 | 0.668 | 0.749 | 0.744 | 0.659 | 0.433 | 0.39 | 0.25 | 0.252 | 0.503 | 0.754 | 0.762 | 0.745 | 0.731 | 0.574 | 0.754 | 0.672 | 0.634 | 0.656 | 0.724
